From PubChem BioAssay AID686917 (Sanford-Burnham Center for Chemical Genomics, 2013)
Values joined by “and” are separate entries in the source; they are usually repeats but may differ in a detail not shown here. Equal entries are not always repeated. Active and inactive are the calls of the source.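 How the source made its calls: active means IC50 at or below 100 µM in the confirmatory dose response; inactive means the rest.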

Molecular target: 26S proteasome non-ATPase regulatory subunit 14 (Homo sapiens) (UniProt O00487)
Sequence (O00487 whole entry, looked up): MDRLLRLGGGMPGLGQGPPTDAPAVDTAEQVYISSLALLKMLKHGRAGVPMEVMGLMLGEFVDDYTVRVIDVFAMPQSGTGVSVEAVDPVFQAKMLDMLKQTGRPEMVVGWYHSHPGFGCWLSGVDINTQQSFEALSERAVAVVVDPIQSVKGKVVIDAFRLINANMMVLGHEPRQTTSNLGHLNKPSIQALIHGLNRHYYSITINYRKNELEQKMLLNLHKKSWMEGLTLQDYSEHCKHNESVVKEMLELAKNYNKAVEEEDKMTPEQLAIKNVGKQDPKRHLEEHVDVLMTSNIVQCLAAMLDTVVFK
Assay: Rpn11 (PSMD14) deubiquitinase inhibitors, dose response, biochemical, fluorescence polarization, human 26S proteasome, uHTS hits (AID 686917)
Conditions: purified human 26S proteasome, Ub4-pepOG fluorescence polarization

| Compound | IC50 |
| --- | --- |
| COc1ccccc1C(=O)Sc1cccc2cccnc12 | 4.59 µM and 2.1 µM |
| N#Cc1ccc(C(=O)Sc2cccc3cccnc23)cc1 | > 99 µM (inactive) |
| COc1ccc(C(=O)Sc2cccc3cccnc23)cc1 | 4.37 µM |
| Cc1ccc(C(=O)Sc2cccc3cccnc23)cc1 | 14.6 µM |
| COC(=O)[C@H](CO)NC(=O)c1cnc2c(SSc3cccc4cc(C(=O)N[C@@H](CO)C(=O)OC)cnc34)cccc2c1 | 4.86 µM |
| COC(=O)[C@H](C)NC(=O)c1cnc2c(SSc3cccc4cc(C(=O)N[C@@H](C)C(=O)OC)cnc34)cccc2c1 | 5.01 µM |
| O=C(Sc1cccc2cccnc12)c1ccccc1OC(F)(F)F | 4.12 µM |
| O=C(Sc1cccc2cccnc12)c1ccccc1[N+](=O)[O-] | 5.27 µM |
| O=C(Sc1cccc2cccnc12)c1ccccc1 | 5.21 µM |
| O=C(Sc1cccc2cccnc12)c1ccc(F)cc1F | 9.67 µM |
| O=C(Sc1cccc2cccnc12)c1ccc2c(c1)OCO2 | 14 µM |
| O=C(Sc1cccc2cccnc12)c1ccc([N+](=O)[O-])cc1 | 10 µM |
| COC(=O)[C@H](CC(C)C)NC(=O)c1cnc2c(SSc3cccc4cc(C(=O)N[C@@H](CC(C)C)C(=O)OC)cnc34)cccc2c1 | 5.32 µM |
| O=C(Sc1cccc2cccnc12)c1ccccc1F | > 99 µM (inactive) |
| O=C(Sc1cccc2cccnc12)c1ccccc1Cl | 5.81 µM |
| O=C(Sc1cccc2cccnc12)c1ccc(F)cc1 | 5.35 µM |
| COC(=O)[C@H](C)NC(=O)c1ccnc2c(SSc3cccc4c(C(=O)N[C@@H](C)C(=O)OC)ccnc34)cccc12 | 4.36 µM |
| C[C@@H](C(=O)O)N(C)C(=O)c1cnc2c(SSc3cccc4cc(C(=O)N(C)[C@@H](C)C(=O)O)cnc34)cccc2c1 | 5.84 µM |
| Cc1ccccc1C(=O)Sc1cccc2cccnc12 | 11 µM |
| CC(C)(C)OC(=O)CCNC(=O)c1cnc2c(SSc3cccc4cc(C(=O)NCCC(=O)OC(C)(C)C)cnc34)cccc2c1 | 4.9 µM |
| CCOc1ccccc1C(=O)Sc1cccc2cccnc12 | 3.7 µM and 14.4 µM |
| COc1ccc(C(=O)Sc2cccc3cccnc23)cc1OC | 9.19 µM |
| N#Cc1cccc(C(=O)Sc2cccc3cccnc23)c1 | 15.8 µM |
| COC(=O)[C@H](C)N(C)C(=O)c1cnc2c(SSc3cccc4cc(C(=O)N(C)[C@@H](C)C(=O)OC)cnc34)cccc2c1 | 4.31 µM |
| O=C(Sc1cccc2cccnc12)c1cccc(C(F)(F)F)c1 | 8.43 µM |

Continued by falling IC50, values first:

| IC50 | Compound |
| --- | --- |
| 4 µM | COC(=O)[C@@H](NC(=O)c1cnc2c(SSc3cccc4cc(C(=O)N[C@H](C(=O)OC)C(C)C)cnc34)cccc2c1)C(C)C |
| 3.97 µM | O=C(Sc1cccc2cccnc12)c1cccc2ccccc12 |
| 3.83 µM | O=C(Sc1cccc2cccnc12)c1ccccc1Br |
| 3.73 µM | O=C(Sc1cccc2cccnc12)c1ccc(C(F)(F)F)cc1 |
| 3.69 µM | O=C(Sc1cccc2cccnc12)c1ccc(F)c(F)c1 |
| 3.54 µM | COc1ccc(C(=O)Sc2cccc3cccnc23)cc1F |
| 3.43 µM | COC(=O)C[C@H](NC(=O)c1cnc2c(SSc3cccc4cc(C(=O)N[C@@H](CC(=O)OC)C(=O)OC)cnc34)cccc2c1)C(=O)OC |
| 3.42 µM | COC(=O)[C@@H]1CCCN1C(=O)c1cnc2c(SSc3cccc4cc(C(=O)N5CCC[C@H]5C(=O)OC)cnc34)cccc2c1 |
| 3.4 µM | COC(=O)c1cnc2c(SSc3cccc4cc(C(=O)OC)cnc34)cccc2c1 |
| 2.66 µM | CCCc1ccc(C(=O)Sc2cccc3cccnc23)cc1 |
| 2.54 µM | CC(C)C[C@H](NC(=O)c1cnc2c(SSc3cccc4cc(C(=O)N[C@@H](CC(C)C)C(=O)O)cnc34)cccc2c1)C(=O)O |
| 2.46 µM | CC(C)Cc1ccc(C(=O)Sc2cccc3cccnc23)cc1 |
| 2.18 µM | O=C(Sc1cccc2cccnc12)c1ccccc1I |
| 1.8 µM | CC[C@@H](C)[C@H](NC(=O)c1cnc2c(SSc3cccc4cc(C(=O)N[C@H](C(=O)O)[C@H](C)CC)cnc34)cccc2c1)C(=O)O |
| 1.77 µM | CC[C@@H](C)[C@H](NC(=O)c1cnc2c(SSc3cccc4cc(C(=O)N[C@H](C(=O)OC)[C@@H](C)CC)cnc34)cccc2c1)C(=O)OC |
| 1.7 µM | O=C(O)[C@@H]1CCCN1C(=O)c1cnc2c(SSc3cccc4cc(C(=O)N5CCC[C@H]5C(=O)O)cnc34)cccc2c1 |
| 1.49 µM | COc1cccc(C(=O)Sc2cccc3cccnc23)c1 |
| 1.48 µM | O=C(Sc1cccc2cccnc12)c1c(Cl)cccc1Cl |
| 1.27 µM | Cc1cccc(C(=O)Sc2cccc3cccnc23)c1 |
| 1.26 µM | O=C(O)c1cnc2c(SSc3cccc4cc(C(=O)O)cnc34)cccc2c1 |
| 1.18 µM | O=C(Sc1cccc2cccnc12)c1cccc(Cl)c1 |
| 0.663 µM | O=C(Sc1cccc2cccnc12)C1CCCCC1 |
